Assays:
Liver microsome [1] = assay: Drug metabolism in human liver microsomes assessed as dextrophan-O-glucuronide formation measured as plasma fraction unbound; format: ADME, cell-free
[2] = target: T1, UDP-glucuronosyltransferase 2B7 (Homo sapiens, UniProt P16662); assay: Drug metabolism assessed as recombinat UGT2B7 (unknown origin) -mediated dextrophan-O-glucuronide formation; format: ADME
T1 sequence (P16662 whole entry): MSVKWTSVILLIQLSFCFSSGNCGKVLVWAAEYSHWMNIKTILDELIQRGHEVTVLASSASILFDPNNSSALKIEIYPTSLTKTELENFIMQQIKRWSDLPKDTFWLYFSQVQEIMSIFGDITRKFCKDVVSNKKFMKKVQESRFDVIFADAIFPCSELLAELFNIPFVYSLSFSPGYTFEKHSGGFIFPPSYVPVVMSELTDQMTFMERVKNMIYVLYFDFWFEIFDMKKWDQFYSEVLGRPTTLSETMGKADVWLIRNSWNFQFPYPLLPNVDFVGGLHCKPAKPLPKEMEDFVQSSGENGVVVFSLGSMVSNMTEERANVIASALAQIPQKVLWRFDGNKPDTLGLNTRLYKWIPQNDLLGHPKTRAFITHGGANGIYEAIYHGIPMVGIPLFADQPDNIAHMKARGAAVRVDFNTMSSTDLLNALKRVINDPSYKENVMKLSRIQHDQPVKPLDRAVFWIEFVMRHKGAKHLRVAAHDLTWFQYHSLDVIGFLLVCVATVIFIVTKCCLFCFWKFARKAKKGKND

Liver microsome [3] = assay: Drug metabolism in human liver microsomes assessed as dextrophan-O-glucuronide formation measured as intrinsic unbound clearance; format: ADME
Liver microsome [4] = assay: Drug metabolism in human liver microsomes assessed as 3-hydroxymorphinan formation measured per mg of microsomal protein; format: ADME
[5] = target: T2, UDP-glucuronosyltransferase 1A7 (Homo sapiens, UniProt Q9HAW7); assay: Drug metabolism assessed as recombinat UGT1A7 (unknown origin) -mediated dextrophan-O-glucuronide formation; format: ADME
T2 sequence (Q9HAW7 whole entry): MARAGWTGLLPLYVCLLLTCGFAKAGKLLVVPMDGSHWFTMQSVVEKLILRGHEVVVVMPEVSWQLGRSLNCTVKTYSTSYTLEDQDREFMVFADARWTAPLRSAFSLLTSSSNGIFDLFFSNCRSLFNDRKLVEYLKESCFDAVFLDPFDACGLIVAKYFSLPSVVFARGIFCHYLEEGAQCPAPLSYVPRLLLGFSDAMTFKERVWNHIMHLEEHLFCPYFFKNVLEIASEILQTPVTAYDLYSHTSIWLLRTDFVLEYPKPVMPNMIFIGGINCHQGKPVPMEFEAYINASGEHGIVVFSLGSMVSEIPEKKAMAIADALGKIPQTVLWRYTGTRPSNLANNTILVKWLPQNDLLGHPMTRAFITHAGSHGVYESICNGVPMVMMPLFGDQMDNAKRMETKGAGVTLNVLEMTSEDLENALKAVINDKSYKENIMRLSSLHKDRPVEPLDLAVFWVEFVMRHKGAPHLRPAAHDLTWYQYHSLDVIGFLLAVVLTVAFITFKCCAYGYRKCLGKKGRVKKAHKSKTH

Liver microsome [6] = assay: Drug metabolism in human liver microsomes assessed as dextrophan-O-glucuronide formation; format: ADME
[7] = target: T3, UDP-glucuronosyltransferase 1A3 (Homo sapiens, UniProt P35503); assay: Drug metabolism assessed as recombinat UGT1A3 (unknown origin) -mediated dextrophan-O-glucuronide formation; format: ADME
T3 sequence (P35503 whole entry): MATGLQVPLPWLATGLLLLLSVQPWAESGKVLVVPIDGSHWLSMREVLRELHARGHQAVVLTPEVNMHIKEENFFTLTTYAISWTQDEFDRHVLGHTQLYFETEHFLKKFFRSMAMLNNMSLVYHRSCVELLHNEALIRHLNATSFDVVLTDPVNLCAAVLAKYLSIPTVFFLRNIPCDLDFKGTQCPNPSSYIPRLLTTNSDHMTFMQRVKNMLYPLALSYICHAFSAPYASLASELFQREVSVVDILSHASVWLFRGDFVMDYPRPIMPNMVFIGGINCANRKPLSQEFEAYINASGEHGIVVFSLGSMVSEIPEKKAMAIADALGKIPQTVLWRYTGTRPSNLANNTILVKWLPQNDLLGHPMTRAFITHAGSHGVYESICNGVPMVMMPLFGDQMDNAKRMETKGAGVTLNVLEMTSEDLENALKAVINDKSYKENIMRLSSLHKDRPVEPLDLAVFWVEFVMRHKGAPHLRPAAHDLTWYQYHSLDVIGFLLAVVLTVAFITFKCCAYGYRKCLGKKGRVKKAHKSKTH

[8] = target: T4, UDP-glucuronosyltransferase 1A9 (Homo sapiens, UniProt O60656); assay: Drug metabolism assessed as recombinat UGT1A9 (unknown origin) -mediated dextrophan-O-glucuronide formation; format: ADME
T4 sequence (O60656 whole entry): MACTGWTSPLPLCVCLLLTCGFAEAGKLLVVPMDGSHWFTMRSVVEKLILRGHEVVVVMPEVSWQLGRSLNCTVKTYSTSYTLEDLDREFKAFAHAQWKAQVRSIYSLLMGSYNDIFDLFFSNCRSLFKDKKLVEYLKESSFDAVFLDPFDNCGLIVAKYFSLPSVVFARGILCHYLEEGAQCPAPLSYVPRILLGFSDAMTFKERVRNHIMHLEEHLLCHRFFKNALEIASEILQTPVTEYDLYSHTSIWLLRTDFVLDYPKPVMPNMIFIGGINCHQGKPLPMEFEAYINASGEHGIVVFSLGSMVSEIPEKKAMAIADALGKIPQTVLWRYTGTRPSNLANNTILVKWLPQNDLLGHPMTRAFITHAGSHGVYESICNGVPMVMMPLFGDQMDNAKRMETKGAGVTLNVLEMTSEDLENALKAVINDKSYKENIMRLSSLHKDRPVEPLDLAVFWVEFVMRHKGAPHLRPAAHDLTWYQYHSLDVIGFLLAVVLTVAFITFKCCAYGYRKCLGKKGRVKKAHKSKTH

Liver microsome [9] = assay: Drug metabolism in human liver microsomes assessed as 3-hydroxymorphinan formation; format: ADME
Homo sapiens = assay: Ratio of AUC for compound to dexttomethorphan in human treated with 30 to 60 mg, po dexttomethorphan; format: ADME, organism-based; conditions: in vivo

With `CN1CC[C@@]23CCCC[C@@H]2[C@@H]1Cc1ccc(O)cc13` [DEXTRORPHAN] the Fu (Liver microsome [1]) was 0.55, the Drug metabolism [2] was “metabolite_detected” and the CL free (Liver microsome [3]) was 2.9 µL/min/mg. For the same compound, the Vmax (Liver microsome [4]) was 0.8 nmol/min, the Drug metabolism [5] was “metabolite_not_detected” and the Km (Liver microsome [6]) was 690 µM. For the same compound, the Drug metabolism [7] was “metabolite_not_detected”, the Drug metabolism [8] was “metabolite_not_detected” and the Km (Liver microsome [9]) was 910 µM. For the same compound, the “Ratio AUC” value (Homo sapiens) was 0.61.

— ChEMBL document CHEMBL3526083, “Prediction of relative in vivo metabolite exposure from in vitro data using two model drugs: dextromethorphan and omeprazole” (Drug Metab Dispos, 2012)
